Measured values from patent publication US20220401514A1, “ANTIMICROBIAL, BACTERIOPHAGE-DERIVED POLYPEPTIDES AND THEIR USE AGAINST GRAM-NEGATIVE AND ACID-FAST BACTERIA” (CONTRAFECT CORPORATION, priority 2019, published 2022).

What was measured:
[1] = tested on: Acinetobacter baumannii strain 30; assay: Checkerboard assay (FICI) with antibiotics, A. baumannii; type: cell-based; design: key to FIC Index: FICI = FIC A + FIC B; ≤0.5 synergy, ≥2 antagonism; conditions: for Chp peptide FIC / Chp peptide MIC: checkerboard
Salmonella typhimurium = assay: MIC against Salmonella typhimurium; type: cell-based; conditions: Salmonella typhimurium
[2] = tested on: carbapenamase-producing Enterobacteriaceae isolates; assay: MIC against CDC Carbapenamase Enterobacteriaceae panel (n = 53); type: cell-based
Source text: Additionally, a third panel of 53 carbapenamase-producing Enterobacteriaceae isolates were selected to represent a diversity of species and carbapenemases. See wwwn.cdc.gov/ARIsolateBank/Panel/PanelDetail?ID=8.

LPS = assay: Endotoxin neutralization, limulus amoebocyte lysate (LAL) enzyme assay, LPS binding; type: biochemical; conditions: LPS 0.8 EU/mL
Procedure: CHEM. […] The standard reference samples contained only LPS dissolved in pyrogen-free water. Solutions were mixed well and incubated at 24° C. for 1 hour, and the manufacturers' test procedure for quantitative detection of endotoxins was followed.

[3] = tested on: P. aeruginosa strain PAO1; assay: MIC against PAO1 in Mueller-Hinton broth with 50% human plasma or human serum; type: cell-based, Pseudomonas aeruginosa
[4] = tested on: P. aeruginosa strain PA20 persister cells; assay: Activity against persister cells, P. aeruginosa; type: cell-based, Pseudomonas aeruginosa
[5] = tested on: mature biofilms formed by P. aeruginosa strain ATCC 17647; assay: Minimal Biofilm Eradicating Concentration (MBEC), Calgary Biofilm Device, crystal violet; type: cell-based, Pseudomonas aeruginosa
Procedure: Biofilms are then washed and treated with e.g., a 2-fold dilution series of the lysin in TSBg at e.g., 37° C. for 24 hours. After treatment, wells are washed, air-dried at e.g., 37° C. and stained with e.g., 0.05% crystal violet for 10 minutes.
Determination of Minimal Biofilm Eradicating Concentrations (MBEC). […] Biofilms were washed and treated with a 2-fold dilution series of each peptide in TSBg at 37° C. for 16 hours. […] The OD600 of extracted crystal violet was determined.

[6] = in combination with Azithromycin
[7] = in combination with Ciprofloxacin
[8] = in combination with Levofloxacin
[9] = in combination with Piperacillin
[10] = Carbapenamase Enterobacteriaceae panel
[11] = MBEC assay format, summary statement, strain not stated there
[12] = P. aeruginosa ATCC 17647 mature biofilm, tryptic soy broth with 2% glucose

MRLKMARRRYRLPRRRSRRLFSRTALRMHPRNRLRRIMRGGIRF [Chp2]
FIC Index ([1]; Chp peptide + Amikacin): 0.281 | FIC Index ([1]; Chp peptide + Azithromycin): 0.563 | FIC Index ([1]; Chp peptide + Aztreonam): 0.313 | FIC Index ([1]; Chp peptide + Ciprofloxacin): 0.531 | FIC Index ([1]; Chp peptide + Colistin): 0.375 | FIC Index ([1]; Chp peptide + Gentamicin): 0.313 | FIC Index ([1]; Chp peptide + Imipenem): 0.531 | FIC Index ([1]; Chp peptide + Levofloxacin): 0.5 | FIC Index ([1]; Chp peptide + Meropenem): 0.375 | FIC Index ([1]; Chp peptide + Piperacillin): 0.375 | FIC Index ([1]; Chp peptide + Tobramycin): 0.188 | Chp peptide FIC ([1]; in combination with Amikacin): 0.03125 | Chp peptide MIC ([1]; in combination with Amikacin): 0.03125 µg/mL | Chp peptide FIC [1, 6]: 0.0625 | Chp peptide MIC [1, 6]: 0.03125 µg/mL | Chp peptide FIC ([1]; in combination with Aztreonam): 0.0625 | Chp peptide MIC ([1]; in combination with Aztreonam): 0.0625 µg/mL | Chp peptide FIC [1, 7]: 0.5 | Chp peptide MIC [1, 7]: 0.5 µg/mL | Chp peptide FIC ([1]; in combination with Colistin): 0.25 | Chp peptide MIC ([1]; in combination with Colistin): 0.25 µg/mL | Chp peptide FIC ([1]; in combination with Gentamicin): 0.0625 | Chp peptide MIC ([1]; in combination with Gentamicin): 0.0625 µg/mL | Chp peptide FIC ([1]; in combination with Imipenem): 0.03125 | Chp peptide MIC ([1]; in combination with Imipenem): 0.01562 µg/mL | Chp peptide FIC [1, 8]: 0.25 | Chp peptide MIC [1, 8]: 0.25 µg/mL | Chp peptide FIC ([1]; in combination with Meropenem): 0.125 | Chp peptide MIC ([1]; in combination with Meropenem): 0.125 µg/mL | Chp peptide FIC [1, 9]: 0.125 | Chp peptide MIC [1, 9]: 0.125 µg/mL | Chp peptide FIC ([1]; in combination with Tobramycin): 0.0625 | Chp peptide MIC ([1]; in combination with Tobramycin): 0.0625 µg/mL | MIC (Salmonella typhimurium): 2 µg/mL | MIC ([2]; Bank No. 0112, Klebsiella pneumoniae): 1 µg/mL | MIC ([2]; Bank No. 0113, Klebsiella pneumoniae): 1 µg/mL | MIC ([2]; Bank No. 0114, Escherichia coli): 0.5 µg/mL | MIC ([2]; Bank No. 0115, Klebsiella pneumoniae): 1 µg/mL | MIC ([2]; Bank No. 0116, Citrobacter freundii): 0.5 µg/mL | MIC ([2]; Bank No. 0117, Klebsiella pneumoniae): 0.5 µg/mL | MIC ([2]; Bank No. 0118, Escherichia coli): 0.5 µg/mL | MIC ([2]; Bank No. 0119, Escherichia coli): 0.5 µg/mL | MIC ([2]; Bank No. 0120, Klebsiella pneumoniae): 0.25 µg/mL | MIC ([2]; Bank No. 0121, Serratia marcescens): > 8 µg/mL | MIC ([2]; Bank No. 0122, Serratia marcescens): > 8 µg/mL | MIC ([2]; Bank No. 0123, Serratia marcescens): > 8 µg/mL | MIC ([2]; Bank No. 0124, Serratia marcescens): > 8 µg/mL | MIC ([2]; Bank No. 0125, Klebsiella pneumoniae): 1 µg/mL | MIC ([2]; Bank No. 0126, Klebsiella pneumoniae): 1 µg/mL | MIC ([2]; Bank No. 0127, Salmonella Senftenberg): 0.5 µg/mL | MIC ([2]; Bank No. 0128, Escherichia coli): 0.5 µg/mL | MIC ([2]; Bank No. 0129, Klebsiella pneumoniae): 1 µg/mL | MIC ([2]; Bank No. 0130, Serratia marcescens): > 8 µg/mL | MIC ([2]; Bank No. 0131, Serratia marcescens): > 8 µg/mL | MIC ([2]; Bank No. 0132, Enterobacter cloacae group): 1 µg/mL | MIC ([2]; Bank No. 0134, Raoultella ornithinolytica): 1 µg/mL | MIC ([2]; Bank No. 0135, Klebsiella pneumoniae): 0.5 µg/mL | MIC ([2]; Bank No. 0136, Enterobacter cloacae): 0.5 µg/mL | MIC ([2]; Bank No. 0137, Escherichia coli): 0.25 µg/mL | MIC ([2]; Bank No. 0138, Klebsiella pneumoniae): 0.5 µg/mL | MIC ([2]; Bank No. 0139, Klebsiella pneumoniae): 1 µg/mL | MIC ([2]; Bank No. 0140, Klebsiella pneumoniae): 0.5 µg/mL | MIC ([2]; Bank No. 0141, Klebsiella pneumoniae): 0.5 µg/mL | MIC ([2]; Bank No. 0142, Klebsiella pneumoniae): 0.5 µg/mL | MIC ([2]; Bank No. 0143, Klebsiella pneumoniae): 0.5 µg/mL | MIC ([2]; Bank No. 0144, Kluyvera ascorbata): 0.25 µg/mL | MIC ([2]; Bank No. 0145, Klebsiella pneumoniae): 1 µg/mL | MIC ([2]; Bank No. 0146, Klebsiella pneumoniae): 1 µg/mL | MIC ([2]; Bank No. 0147, Klebsiella oxytoca): 1 µg/mL | MIC ([2]; Bank No. 0148, Klebsiella pneumoniae): 1 µg/mL | MIC ([2]; Bank No. 0149, Escherichia coli): 0.5 µg/mL | MIC ([2]; Bank No. 0150, Escherichia coli): 0.25 µg/mL | MIC ([2]; Bank No. 0151, Escherichia coli): 0.25 µg/mL | MIC ([2]; Bank No. 0152, Klebsiella pneumoniae): 1 µg/mL | MIC ([2]; Bank No. 0153, Klebsiella pneumoniae): 0.5 µg/mL | MIC ([2]; Bank No. 0154, Enterobacter cloacae): 0.25 µg/mL | MIC ([2]; Bank No. 0155, Proteus mirabilis): 0.25 µg/mL | MIC ([2]; Bank No. 0156, Proteus mirabilis): 0.5 µg/mL | MIC ([2]; Bank No. 0157, Citrobacter freundii): 0.5 µg/mL | MIC ([2]; Bank No. 0158, Klebsiella pneumoniae): 0.5 µg/mL | MIC ([2]; Bank No. 0159, Proteus mirabilis): 0.25 µg/mL | MIC ([2]; Bank No. 0160, Klebsiella pneumoniae): 1 µg/mL | MIC ([2]; Bank No. 0161, Enterbacter aerogenes): 2 µg/mL | MIC ([2]; Bank No. 0162, Escherichia coli): 0.25 µg/mL | MIC ([2]; Bank No. 0163, Enterobacter cloacae): 0.25 µg/mL | MIC ([2]; Bank No. 0164, Enterobacter cloacae complex): 1 µg/mL | MIC50 [2, 10]: 0.5 µg/mL | MIC90 [2, 10]: 1 µg/mL | LPS binding (LPS; […]-64 μg/mL, 24° C., 1 hour): demonstrate binding to LPS | % LPS Bound (LPS; peptide concentration 0.5 μg/mL): 28.7% | % LPS Bound (LPS; peptide concentration 1 μg/mL): 28.0% | % LPS Bound (LPS; peptide concentration 2 μg/mL): 27.0% | % LPS Bound (LPS; peptide concentration 4 μg/mL): 29.3% | % LPS Bound (LPS; peptide concentration 8 μg/mL): 31.0% | % LPS Bound (LPS; peptide concentration 16 μg/mL): 40.8% | % LPS Bound (LPS; peptide concentration 32 μg/mL): 58.1% | % LPS Bound (LPS; peptide concentration 64 μg/mL): 71.0% | MIC [3]: 2 µg/mL | Minimal inhibitory concentration, Human Serum [3]: 2 µg/mL | Viable persister count after treatment (log10 CFU/mL) ([4]; P. aeruginosa PA20 persister cells, Run #1, limit of detection 2-log10 CFU/mL): 2.7 Log10 (CFU/mL) | Viable persister count after treatment (log10 CFU/mL) ([4]; P. aeruginosa PA20 persister cells, Run #2, limit of detection 2-log10 CFU/mL): 2.3 Log10 (CFU/mL) | Viable persister count after treatment (log10 CFU/mL) ([4]; P. aeruginosa PA20 persister cells, Run #3, limit of detection 2-log10 CFU/mL): 2 Log10 (CFU/mL) | Viable persister count after treatment (log10 CFU/mL) ([4]; P. aeruginosa PA20 persister cells, average of 3 runs): 2.3 Log10 (CFU/mL) | Delta Log ([4]; P. aeruginosa PA20 persister cells, log10 CFU/mL reduction as compared to buffer): 2.1 | log10 CFU/mL reduction as compared to buffer ([4]; P. aeruginosa persister cells, 1 hour at 37° C.): 2.1 log10 CFU/mL | MBEC [5, 11]: 0.25 µg/mL | MBEC [5, 12]: 0.25 µg/mL

MARRYRLSRRRSRRLFSRTALRMHRRNRLRRIMRGGIRF [Chp4]
MIC [3]: 2 µg/mL | Minimal inhibitory concentration, Human Serum [3]: 2 µg/mL | MBEC [5, 11]: 0.25 µg/mL | MBEC [5, 12]: 0.25 µg/mL
